Data reported in patent publication US9113629B2, “4-amino-6-(4-substituted-phenyl)-picolinates and 6-amino-2-(4-substituted-phenyl)-pyrimidine-4-carboxylates and their use as herbicides” (DOW AGROSCIENCES LLC, priority 2013, dated 2015).
Read-outs that look alike come from different tables or passages of the source.

Key:
[1] = tested on: Key Grass and Sedge Weeds as well as Grass Crops; assay: Post-emergent Test II herbicidal activity (Table 6); assay type: in vivo; conditions: post-emergence, 336 h
Method in brief: (§1)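 Greenhouse post-emergent assay: seedlings (first/second true leaf) in Metro-Mix 360 were sprayed at 187 L/ha at a top rate plus twofold dilutions down to 1/16×; solvent-blank controls were included. Percent visual injury was read at 14 d.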

[2] = tested on: Key Broadleaf Weed and Crop Species; assay: Post-emergent Test II herbicidal activity (Table 5); assay type: in vivo; conditions: post-emergence, 336 h, 14 days after application; for pest or weed control at 70 g/ha: application rate 70 g ai/ha; for pest or weed control at 140 g/ha: application rate 140 g ai/ha
Method in brief: as §1

[3] = ABUTH: velvetleaf (Abutilon theophrasti), read-out: Visual Growth Reduction (%) 14 Days After Application, ABUTH
[4] = AMARE: redroot pigweed (Amaranthus retroflexus), read-out: Visual Growth Reduction (%) 14 Days After Application, AMARE
[5] = BRSNN: oilseed-rape, canola (Brassica napus), read-out: Visual Growth Reduction (%) 14 Days After Application, BRSNN
[6] = CHEAL: lambsquarters (Chenopodium album), read-out: Visual Growth Reduction (%) 14 Days After Application, CHEAL
[7] = EPHHL: wild poinsettia (Euphorbia heterophylla), read-out: Visual Growth Reduction (%) 14 Days After Application, EPHHL
[8] = HELAN: sunflower (Helianthus annuus), read-out: Visual Growth Reduction (%) 14 Days After Application, HELAN
[9] = VIOTR: wild pansy (Viola tricolor), read-out: Visual Growth Reduction (%) 14 Days After Application, VIOTR

Structure (SMILES): COC(=O)c1nc(-c2ccc(C(F)(F)F)c(F)c2)cc(N)c1Cl [Compound 29, methyl 4-amino-3-chloro-6-(3-fluoro-4-(trifluoromethyl)phenyl)picolinate]
- melting point: 145 to 146 °C
- pest or weed control at 70 g/ha ([1]; Triticum aestivum, TRZSS (wheat), application rate 70 g ai/ha, read-out: Visual Growth Reduction (%) 14 Days After Application, TRZSS): 0 to 29%
- pest or weed control at 140 g/ha ([1]; Triticum aestivum, TRZSS (wheat), application rate 140 g ai/ha, read-out: Visual Growth Reduction (%) 14 Days After Application, TRZSS): 0 to 29%
- pest or weed control at 70 g/ha ([1]; CYPES: yellow nutsedge (Cyperus esculentus), application rate 70 g ai/ha, read-out: Visual Growth Reduction (%) 14 Days After Application, CYPES): 30 to 44%
- pest or weed control at 140 g/ha ([1]; CYPES: yellow nutsedge (Cyperus esculentus), application rate 140 g ai/ha, read-out: Visual Growth Reduction (%) 14 Days After Application, CYPES): 45 to 59%
- pest or weed control at 70 g/ha ([1]; DIGSA: crabgrass (Digitaria sanguinalis), application rate 70 g ai/ha, read-out: Visual Growth Reduction (%) 14 Days After Application, DIGSA): 30 to 44%
- pest or weed control at 140 g/ha ([1]; DIGSA: crabgrass (Digitaria sanguinalis), application rate 140 g ai/ha, read-out: Visual Growth Reduction (%) 14 Days After Application, DIGSA): 60 to 74%
- pest or weed control at 70 g/ha ([1]; ECHCG: barnyardgrass (Echinochloa crus-galli), application rate 70 g ai/ha, read-out: Visual Growth Reduction (%) 14 Days After Application, ECHCG): 0 to 29%
- pest or weed control at 140 g/ha ([1]; ECHCG: barnyardgrass (Echinochloa crus-galli), application rate 140 g ai/ha, read-out: Visual Growth Reduction (%) 14 Days After Application, ECHCG): 0 to 29%
- pest or weed control at 70 g/ha ([1]; ORYSA: rice (Oryza sativa), application rate 70 g ai/ha, read-out: Visual Growth Reduction (%) 14 Days After Application, ORYSA): 0 to 29%
- pest or weed control at 140 g/ha ([1]; ORYSA: rice (Oryza sativa), application rate 140 g ai/ha, read-out: Visual Growth Reduction (%) 14 Days After Application, ORYSA): 0 to 29%
- pest or weed control at 70 g/ha ([1]; SETFA: giant foxtail (Setaria faberi), application rate 70 g ai/ha, read-out: Visual Growth Reduction (%) 14 Days After Application, SETFA): 0 to 29%
- pest or weed control at 140 g/ha ([1]; SETFA: giant foxtail (Setaria faberi), application rate 140 g ai/ha, read-out: Visual Growth Reduction (%) 14 Days After Application, SETFA): 0 to 29%
- pest or weed control at 70 g/ha ([1]; SORVU: grain sorghum (Sorghum vulgare), application rate 70 g ai/ha, read-out: Visual Growth Reduction (%) 14 Days After Application, SORVU): 45 to 59%
- pest or weed control at 140 g/ha ([1]; SORVU: grain sorghum (Sorghum vulgare), application rate 140 g ai/ha, read-out: Visual Growth Reduction (%) 14 Days After Application, SORVU): 45 to 59%
- pest or weed control at 70 g/ha ([1]; ZEAMX: maize, corn (Zea mays), application rate 70 g ai/ha, read-out: Visual Growth Reduction (%) 14 Days After Application, ZEAMX): 0 to 29%
- pest or weed control at 140 g/ha ([1]; ZEAMX: maize, corn (Zea mays), application rate 140 g ai/ha, read-out: Visual Growth Reduction (%) 14 Days After Application, ZEAMX): 0 to 29%
- pest or weed control at 70 g/ha [2, 3]: 85 to 94%
- pest or weed control at 140 g/ha [2, 3]: 85 to 94%
- pest or weed control at 70 g/ha [2, 4]: 60 to 74%
- pest or weed control at 140 g/ha [2, 4]: 60 to 74%
- pest or weed control at 70 g/ha [2, 5]: 45 to 59%
- pest or weed control at 140 g/ha [2, 5]: 60 to 74%
- pest or weed control at 70 g/ha [2, 6]: 95 to 100%
- pest or weed control at 140 g/ha [2, 6]: 95 to 100%
- pest or weed control at 70 g/ha [2, 7]: 95 to 100%
- pest or weed control at 140 g/ha [2, 7]: 95 to 100%
- pest or weed control at 70 g/ha [2, 8]: 85 to 94%
- pest or weed control at 140 g/ha [2, 8]: 85 to 94%
- pest or weed control at 70 g/ha [2, 9]: 0 to 29%
- pest or weed control at 140 g/ha [2, 9]: 0 to 29%

Structure (SMILES): COc1c(N)nc(-c2ccc(I)c(F)c2F)nc1C(=O)O [Compound 89]
- melting point: 119 to 121 °C
- pest or weed control at 70 g/ha ([1]; CYPES: yellow nutsedge (Cyperus esculentus), 70 g ai/ha, read-out: Visual Growth Reduction (%) 14 Days After Application, CYPES): 45 to 59%
- pest or weed control at 140 g/ha ([1]; CYPES: yellow nutsedge (Cyperus esculentus), 140 g ai/ha, read-out: Visual Growth Reduction (%) 14 Days After Application, CYPES): 95 to 100%
- pest or weed control at 70 g/ha ([1]; DIGSA: crabgrass (Digitaria sanguinalis), 70 g ai/ha, read-out: Visual Growth Reduction (%) 14 Days After Application, DIGSA): 45 to 59%
- pest or weed control at 140 g/ha ([1]; DIGSA: crabgrass (Digitaria sanguinalis), 140 g ai/ha, read-out: Visual Growth Reduction (%) 14 Days After Application, DIGSA): 60 to 74%
- pest or weed control at 70 g/ha ([1]; ECHCG: barnyardgrass (Echinochloa crus-galli), 70 g ai/ha, read-out: Visual Growth Reduction (%) 14 Days After Application, ECHCG): 85 to 94%
- pest or weed control at 140 g/ha ([1]; ECHCG: barnyardgrass (Echinochloa crus-galli), 140 g ai/ha, read-out: Visual Growth Reduction (%) 14 Days After Application, ECHCG): 85 to 94%
- pest or weed control at 70 g/ha ([1]; ORYSA: rice (Oryza sativa), crop, 70 g ai/ha, read-out: Visual Growth Reduction (%) 14 Days After Application, ORYSA): 0 to 29%
- pest or weed control at 140 g/ha ([1]; ORYSA: rice (Oryza sativa), crop, 140 g ai/ha, read-out: Visual Growth Reduction (%) 14 Days After Application, ORYSA): 60 to 74%
- pest or weed control at 70 g/ha ([1]; SETFA: giant foxtail (Setaria faberi), 70 g ai/ha, read-out: Visual Growth Reduction (%) 14 Days After Application, SETFA): 85 to 94%
- pest or weed control at 140 g/ha ([1]; SETFA: giant foxtail (Setaria faberi), 140 g ai/ha, read-out: Visual Growth Reduction (%) 14 Days After Application, SETFA): 85 to 94%
- pest or weed control at 70 g/ha ([1]; SORVU: grain sorghum (Sorghum vulgare), 70 g ai/ha, read-out: Visual Growth Reduction (%) 14 Days After Application, SORVU): 85 to 94%
- pest or weed control at 140 g/ha ([1]; SORVU: grain sorghum (Sorghum vulgare), 140 g ai/ha, read-out: Visual Growth Reduction (%) 14 Days After Application, SORVU): 95 to 100%
- pest or weed control at 70 g/ha ([1]; TRZSS (wheat, Triticum aestivum), crop, 70 g ai/ha, read-out: Visual Growth Reduction (%) 14 Days After Application, TRZSS): 0 to 29%
- pest or weed control at 140 g/ha ([1]; TRZSS (wheat, Triticum aestivum), crop, 140 g ai/ha, read-out: Visual Growth Reduction (%) 14 Days After Application, TRZSS): 45 to 59%
- pest or weed control at 70 g/ha ([1]; ZEAMX: maize, corn (Zea mays), crop, 70 g ai/ha, read-out: Visual Growth Reduction (%) 14 Days After Application, ZEAMX): 45 to 59%
- pest or weed control at 140 g/ha ([1]; ZEAMX: maize, corn (Zea mays), crop, 140 g ai/ha, read-out: Visual Growth Reduction (%) 14 Days After Application, ZEAMX): 95 to 100%
- pest or weed control at 70 g/ha [2, 3]: 85 to 94%
- pest or weed control at 140 g/ha [2, 3]: 95 to 100%
- pest or weed control at 70 g/ha [2, 4]: 85 to 94%
- pest or weed control at 140 g/ha [2, 4]: 95 to 100%
- pest or weed control at 70 g/ha [2, 5]: 95 to 100%
- pest or weed control at 140 g/ha [2, 5]: 95 to 100%
- pest or weed control at 70 g/ha [2, 6]: 95 to 100%
- pest or weed control at 140 g/ha [2, 6]: 95 to 100%
- pest or weed control at 70 g/ha [2, 7]: 95 to 100%
- pest or weed control at 140 g/ha [2, 7]: 95 to 100%
- pest or weed control at 70 g/ha [2, 8]: 95 to 100%
- pest or weed control at 140 g/ha [2, 8]: 95 to 100%
- pest or weed control at 70 g/ha [2, 9]: 95 to 100%
- pest or weed control at 140 g/ha [2, 9]: 95 to 100%
